Experiments:
[1] = biological target: Aurora kinase B (Homo sapiens, UniProt Q96GD4); experiment: Inhibition of Aurora B (unknown origin)
[2] = Antiproliferative activity against human TT cells assessed as cell growth inhibition measured after 48 hrs by Cell titer-Glo assay; type: functional, cell-based
[3] = biological target: Glycogen synthase kinase-3 (Sus scrofa, UniProt B2LUN4+I6LNT8); experiment: Inhibition of porcine brain GSK-3alpha/beta incubated for 30 mins in presence of [33p]-gamma ATP by scintillation counter analysis
[4] = biological target: Aurora kinase C (Homo sapiens, UniProt Q9UQB9); experiment: Inhibition of Aurora C (unknown origin)
[5] = tested on: LXFL 529; experiment: Antiproliferative activity against human LXFL 529 cells assessed as cell growth inhibition; type: functional, cell-based
[6] = tested on: HCT-116; experiment: Antiproliferative activity against human HCT-116 cells assessed as cell growth inhibition; type: functional, cell-based
[7] = tested on: MCF7; experiment: Antiproliferative activity against human MCF7 cells assessed as cell growth inhibition; type: functional, cell-based
[8] = biological target: Vascular endothelial growth factor receptor 2 (Homo sapiens, UniProt P35968); experiment: Inhibition of VEGFR2 (unknown origin)
[9] = tested on: CT26; experiment: Antitumor activity against mouse CT26 cells in BALB/c mouse assessed as reduction in tumour weight at 200 mg/kg, ILES daily measured after 15 days relative to control; type: functional; set-up: scale not given: the % may be the effect or the level left; details: time 15 day
[10] = tested on: CT26; experiment: Antitumor activity against mouse CT26 cells in BALB/c mouse assessed as reduction in tumour volume at 200 mg/kg, ILES daily measured after 15 days relative to control; type: functional; set-up: scale not given: the % may be the effect or the level left; details: time 15 day
[11] = biological target: Proto-oncogene tyrosine-protein kinase Src (Homo sapiens, UniProt P12931); experiment: Inhibition of c-SRC in human MDA-MB-468 cells in presence of [gamma-32P]ATP and ATP by immunoprecipitation method; type: cell-based
[12] = Antitumor activity against human PDAC cells xenografted in BALB/c nu/nu mouse assessed as reduction in tumour weight at 40 mg/kg, ip treated every other day for 6 days relative to control; type: functional; set-up: scale not given: the % may be the effect or the level left; details: time 6 day
[13] = biological target: Cyclin-dependent kinase 4/cyclin D1 (Homo sapiens, UniProt P11802); experiment: Inhibition of CDK4/cyclin D1 (unknown origin); type: protein-complex assay
[14] = tested on: HuCCT-1; experiment: Antiproliferative activity against human HuCCT-1 cells assessed as cell growth inhibition measured upto 72 hrs by CCK-8 assay; type: functional, cell-based; details: HuCCT-1, 72 h
[15] = tested on: LXFL 529; experiment: Cytotoxicity against human LXFL 529 cells assessed as cell growth inhibition measured after 3 days by SRB assay; type: functional, cell-based; details: LXFL 529, 72 h
[16] = tested on: MV4-11; experiment: Antiproliferative activity against human MV4-11 cells assessed as cell growth inhibition measured after 72 hrs by tetrazolium staining based WST-8 assay; type: functional; details: MV4-11, 72 h
[17] = Inhibition of VEGFR (unknown origin); set-up: species or system Homo sapiens
[18] = tested on: A549; experiment: Antitumor activity against human A549 cells xenografted in CD1 mouse assessed as reduction in tumour volume at 6 mg/kg, sc treated 3 times a week for 25 days in presence of thymoquinone relative to control; type: functional; set-up: scale not given: the % may be the effect or the level left; details: time 25 day
[19] = Antiproliferative activity against human NOZ cells assessed as cell growth inhibition measured upto 72 hrs by CCK-8 assay; type: functional, cell-based
[20] = biological target: T1, Receptor-type tyrosine-protein kinase FLT3 (Homo sapiens, UniProt P36888); experiment: Inhibition of recombinant FLT3 (unknown origin) in presence of ATP by HTRF assay
T1 sequence (P36888 whole entry): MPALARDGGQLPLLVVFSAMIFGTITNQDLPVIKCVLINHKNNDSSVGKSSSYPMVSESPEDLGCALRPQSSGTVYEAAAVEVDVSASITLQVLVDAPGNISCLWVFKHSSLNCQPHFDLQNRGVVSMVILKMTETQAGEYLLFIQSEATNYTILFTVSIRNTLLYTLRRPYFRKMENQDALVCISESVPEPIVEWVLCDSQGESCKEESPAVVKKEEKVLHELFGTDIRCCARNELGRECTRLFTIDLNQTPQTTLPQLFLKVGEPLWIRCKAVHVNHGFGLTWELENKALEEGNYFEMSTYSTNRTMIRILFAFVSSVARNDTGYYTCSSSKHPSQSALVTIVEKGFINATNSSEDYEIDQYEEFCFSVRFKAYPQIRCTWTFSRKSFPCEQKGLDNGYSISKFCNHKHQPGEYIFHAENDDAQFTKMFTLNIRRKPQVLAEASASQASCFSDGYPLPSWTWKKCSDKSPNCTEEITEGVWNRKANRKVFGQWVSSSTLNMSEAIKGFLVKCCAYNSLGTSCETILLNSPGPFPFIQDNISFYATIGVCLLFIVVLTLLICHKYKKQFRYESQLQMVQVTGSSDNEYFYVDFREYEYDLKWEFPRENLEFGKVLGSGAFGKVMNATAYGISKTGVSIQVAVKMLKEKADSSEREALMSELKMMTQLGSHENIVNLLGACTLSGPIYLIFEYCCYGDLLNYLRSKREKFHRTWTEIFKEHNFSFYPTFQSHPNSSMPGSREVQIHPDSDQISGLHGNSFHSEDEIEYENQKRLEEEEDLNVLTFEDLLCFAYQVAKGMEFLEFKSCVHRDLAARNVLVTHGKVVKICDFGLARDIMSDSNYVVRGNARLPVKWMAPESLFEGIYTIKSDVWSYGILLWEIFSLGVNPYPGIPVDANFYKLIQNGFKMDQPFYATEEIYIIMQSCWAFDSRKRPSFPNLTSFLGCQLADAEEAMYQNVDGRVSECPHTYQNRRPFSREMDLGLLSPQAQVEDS

[21] = Antiproliferative activity against human OZ [Human cholangiocarcinoma] cells assessed as cell growth inhibition measured upto 72 hrs by CCK-8 assay; type: functional, cell-based
[22] = Inhibition of CDK2/cyclin E (unknown origin); set-up: species or system Homo sapiens
[23] = tested on: A549; experiment: Antitumor activity against human A549 cells xenografted in CD1 mouse assessed as reduction in tumour weight at 6 mg/kg, sc treated 3 times a week for 25 days in presence of thymoquinone relative to control; type: functional; set-up: scale not given: the % may be the effect or the level left; details: time 25 day
[24] = tested on: HL-60; experiment: Antiproliferative activity against human HL-60 cells assessed as cell growth inhibition measured after 3 days by trypan blue staining based inverted microscope method; type: functional; details: HL-60, 72 h, time 3 day
[25] = biological target: T1, Receptor-type tyrosine-protein kinase FLT3; experiment: Inhibition of FLT3 (unknown origin)
[26] = biological target: Serine/threonine-protein kinase Sgk1 (Homo sapiens, UniProt O00141); experiment: Inhibition of SGK (unknown origin) in presence of ATP
[27] = biological target: Receptor-type tyrosine-protein kinase FLT3 (Homo sapiens, UniProt P36888, D835Y); experiment: Inhibition of recombinant FLT3 D835Y mutant (unknown origin) in presence of ATP by HTRF assay
[28] = biological target: T2, CDK2/Cyclin A2 (Homo sapiens, UniProt P24941); experiment: Inhibition of CDK2/cyclin A (unknown origin); type: protein-complex assay
[29] = tested on: HUVEC; experiment: Antiproliferative activity against HUVEC cells assessed as cell growth inhibition measured after 3 days by [3H]-thymidine incorporation assay; type: functional, cell-based; details: Homo sapiens
[30] = biological target: Tyrosine-protein kinase Lck (Homo sapiens, UniProt P06239); experiment: Inhibition of LCK (unknown origin) in presence of ATP
[31] = biological target: T2, CDK2/Cyclin A2; experiment: Inhibition of GST-fused human CDK2/cyclin A expressed in Escherichia coli using histone H1 as substrate in presence of [33p]-gamma ATP and MgATP
[32] = biological target: Fibroblast growth factor receptor 1 (Homo sapiens, UniProt P11362); experiment: Inhibition of FGFR1 (unknown origin)
[33] = tested on: MCF7; experiment: Cytotoxicity against human MCF7 cells assessed as cell growth inhibition measured after 3 days by SRB assay; type: functional, cell-based; details: MCF7, 72 h
[34] = organism: Danio rerio; experiment: Antiangiogenic activity in transgenic zebrafish embryo assessed as inhibition of angiogenic vessel growth incubated for 24 hrs by FITC staining based analysis; type: functional, organism-based
[35] = biological target: Glycogen synthase kinase-3 (Homo sapiens, UniProt P49840+P49841); experiment: Inhibition of GSK3 (unknown origin); type: protein assay
[36] = biological target: Aurora kinase A (Homo sapiens, UniProt O14965); experiment: Inhibition of Aurora A (unknown origin)
Aurora kinase A, sequence (O14965 whole entry): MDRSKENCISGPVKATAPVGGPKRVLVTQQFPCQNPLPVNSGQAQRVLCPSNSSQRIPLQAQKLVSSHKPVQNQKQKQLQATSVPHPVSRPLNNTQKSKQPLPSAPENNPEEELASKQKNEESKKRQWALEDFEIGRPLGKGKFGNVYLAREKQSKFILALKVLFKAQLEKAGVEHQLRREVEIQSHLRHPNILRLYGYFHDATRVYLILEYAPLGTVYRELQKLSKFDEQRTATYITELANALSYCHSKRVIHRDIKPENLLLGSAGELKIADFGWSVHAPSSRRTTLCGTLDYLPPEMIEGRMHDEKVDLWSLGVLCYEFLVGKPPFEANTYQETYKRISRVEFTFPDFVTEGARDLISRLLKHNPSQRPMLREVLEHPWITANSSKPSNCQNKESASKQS

Aurora kinase C, sequence (Q9UQB9 whole entry): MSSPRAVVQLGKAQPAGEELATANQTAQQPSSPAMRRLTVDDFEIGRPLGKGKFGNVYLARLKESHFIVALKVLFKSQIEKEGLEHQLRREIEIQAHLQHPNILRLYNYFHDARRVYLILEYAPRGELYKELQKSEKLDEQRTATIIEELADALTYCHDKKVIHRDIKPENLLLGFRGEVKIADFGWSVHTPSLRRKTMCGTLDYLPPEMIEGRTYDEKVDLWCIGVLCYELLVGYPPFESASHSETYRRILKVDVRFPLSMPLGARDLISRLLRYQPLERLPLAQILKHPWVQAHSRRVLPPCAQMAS
Aurora kinase B, sequence (Q96GD4 whole entry): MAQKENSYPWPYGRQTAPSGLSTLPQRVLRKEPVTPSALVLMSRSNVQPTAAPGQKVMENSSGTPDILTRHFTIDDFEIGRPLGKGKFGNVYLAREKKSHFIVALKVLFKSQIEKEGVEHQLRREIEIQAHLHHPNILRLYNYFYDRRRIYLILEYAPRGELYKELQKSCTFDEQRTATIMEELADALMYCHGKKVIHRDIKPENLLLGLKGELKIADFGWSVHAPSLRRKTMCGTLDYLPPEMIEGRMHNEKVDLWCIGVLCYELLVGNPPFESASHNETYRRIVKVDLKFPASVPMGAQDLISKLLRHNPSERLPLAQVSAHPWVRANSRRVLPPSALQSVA
Vascular endothelial growth factor receptor 2, sequence (P35968 whole entry): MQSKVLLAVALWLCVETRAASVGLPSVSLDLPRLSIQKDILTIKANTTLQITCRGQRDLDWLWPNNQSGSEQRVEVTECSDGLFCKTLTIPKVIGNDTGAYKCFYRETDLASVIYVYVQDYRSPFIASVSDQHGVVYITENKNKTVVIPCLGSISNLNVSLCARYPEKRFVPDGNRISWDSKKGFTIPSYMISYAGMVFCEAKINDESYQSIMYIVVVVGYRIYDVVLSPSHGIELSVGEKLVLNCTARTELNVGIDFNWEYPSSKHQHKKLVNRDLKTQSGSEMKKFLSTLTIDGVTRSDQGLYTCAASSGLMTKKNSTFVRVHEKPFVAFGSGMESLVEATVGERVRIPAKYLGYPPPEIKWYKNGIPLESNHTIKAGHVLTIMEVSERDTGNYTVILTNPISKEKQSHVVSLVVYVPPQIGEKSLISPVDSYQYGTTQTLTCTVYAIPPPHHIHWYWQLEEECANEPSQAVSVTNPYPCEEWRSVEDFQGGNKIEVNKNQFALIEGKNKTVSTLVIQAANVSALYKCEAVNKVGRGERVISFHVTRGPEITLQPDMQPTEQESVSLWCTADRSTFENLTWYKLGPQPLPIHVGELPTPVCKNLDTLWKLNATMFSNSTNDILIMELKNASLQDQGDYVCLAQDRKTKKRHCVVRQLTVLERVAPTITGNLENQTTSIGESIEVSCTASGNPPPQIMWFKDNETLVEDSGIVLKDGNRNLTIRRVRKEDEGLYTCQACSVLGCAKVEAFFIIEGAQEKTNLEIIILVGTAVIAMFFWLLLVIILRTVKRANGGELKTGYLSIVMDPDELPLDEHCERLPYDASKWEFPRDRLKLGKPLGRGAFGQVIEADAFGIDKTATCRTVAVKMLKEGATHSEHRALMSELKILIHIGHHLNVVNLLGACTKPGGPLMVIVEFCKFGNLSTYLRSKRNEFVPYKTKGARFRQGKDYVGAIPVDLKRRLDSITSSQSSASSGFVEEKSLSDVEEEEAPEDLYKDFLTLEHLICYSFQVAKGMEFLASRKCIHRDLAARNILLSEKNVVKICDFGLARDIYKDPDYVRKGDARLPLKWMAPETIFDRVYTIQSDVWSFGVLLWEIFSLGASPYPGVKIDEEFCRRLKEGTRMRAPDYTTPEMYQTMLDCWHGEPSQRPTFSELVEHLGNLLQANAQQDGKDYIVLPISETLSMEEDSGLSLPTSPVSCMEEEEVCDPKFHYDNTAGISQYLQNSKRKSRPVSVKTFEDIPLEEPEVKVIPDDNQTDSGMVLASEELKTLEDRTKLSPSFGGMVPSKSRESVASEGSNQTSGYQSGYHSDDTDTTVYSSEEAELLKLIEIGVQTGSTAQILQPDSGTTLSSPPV
Proto-oncogene tyrosine-protein kinase Src, sequence (P12931 2-536 limits assumed): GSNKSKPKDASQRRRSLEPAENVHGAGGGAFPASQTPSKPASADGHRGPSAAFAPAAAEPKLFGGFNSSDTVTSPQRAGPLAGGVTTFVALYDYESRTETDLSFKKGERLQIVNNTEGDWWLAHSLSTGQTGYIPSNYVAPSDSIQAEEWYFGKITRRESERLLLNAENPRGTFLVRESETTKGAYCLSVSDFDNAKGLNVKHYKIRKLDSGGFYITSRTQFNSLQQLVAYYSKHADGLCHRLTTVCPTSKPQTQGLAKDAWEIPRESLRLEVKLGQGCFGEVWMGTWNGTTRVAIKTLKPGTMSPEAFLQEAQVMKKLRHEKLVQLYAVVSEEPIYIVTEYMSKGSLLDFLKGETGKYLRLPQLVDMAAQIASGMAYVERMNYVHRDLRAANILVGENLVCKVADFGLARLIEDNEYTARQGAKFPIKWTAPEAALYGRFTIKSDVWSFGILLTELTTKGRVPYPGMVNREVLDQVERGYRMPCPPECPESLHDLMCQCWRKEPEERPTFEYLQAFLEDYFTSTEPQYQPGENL
Fibroblast growth factor receptor 1, sequence (P11362 whole entry): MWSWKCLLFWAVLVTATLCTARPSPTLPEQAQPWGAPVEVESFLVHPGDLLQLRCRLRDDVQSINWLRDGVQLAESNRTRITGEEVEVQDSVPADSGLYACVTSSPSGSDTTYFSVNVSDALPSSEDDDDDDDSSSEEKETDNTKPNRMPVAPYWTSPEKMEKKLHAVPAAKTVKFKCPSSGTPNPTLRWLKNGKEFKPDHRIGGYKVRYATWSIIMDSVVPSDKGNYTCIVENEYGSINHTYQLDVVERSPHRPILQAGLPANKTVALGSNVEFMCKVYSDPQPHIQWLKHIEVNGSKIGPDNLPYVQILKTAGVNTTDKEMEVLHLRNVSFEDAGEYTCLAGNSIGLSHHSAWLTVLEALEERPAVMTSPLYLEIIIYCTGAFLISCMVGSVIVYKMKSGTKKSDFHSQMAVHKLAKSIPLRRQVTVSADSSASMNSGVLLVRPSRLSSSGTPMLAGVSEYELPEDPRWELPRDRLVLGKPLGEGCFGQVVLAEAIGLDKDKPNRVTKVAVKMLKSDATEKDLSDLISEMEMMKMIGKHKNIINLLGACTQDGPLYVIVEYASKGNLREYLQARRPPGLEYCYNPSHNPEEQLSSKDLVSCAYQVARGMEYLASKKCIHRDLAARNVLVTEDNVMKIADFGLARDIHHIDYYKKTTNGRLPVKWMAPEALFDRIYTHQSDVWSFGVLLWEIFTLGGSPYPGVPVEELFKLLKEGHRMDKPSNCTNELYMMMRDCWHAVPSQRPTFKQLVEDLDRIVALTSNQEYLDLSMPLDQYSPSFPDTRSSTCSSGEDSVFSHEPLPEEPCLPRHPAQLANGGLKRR
Serine/threonine-protein kinase Sgk1, sequence (O00141 whole entry): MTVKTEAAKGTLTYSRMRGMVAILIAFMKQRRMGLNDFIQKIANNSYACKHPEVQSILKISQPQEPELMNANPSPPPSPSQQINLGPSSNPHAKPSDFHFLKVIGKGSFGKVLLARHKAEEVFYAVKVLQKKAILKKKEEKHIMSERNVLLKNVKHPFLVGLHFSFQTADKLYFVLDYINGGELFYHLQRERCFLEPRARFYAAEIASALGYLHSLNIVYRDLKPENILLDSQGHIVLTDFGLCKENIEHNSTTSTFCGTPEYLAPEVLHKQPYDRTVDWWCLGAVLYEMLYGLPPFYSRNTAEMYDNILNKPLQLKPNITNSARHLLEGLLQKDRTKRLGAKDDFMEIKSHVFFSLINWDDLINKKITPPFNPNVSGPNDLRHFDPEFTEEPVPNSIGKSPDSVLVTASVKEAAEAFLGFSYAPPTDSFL
Tyrosine-protein kinase Lck, sequence (P06239 whole entry, the tested form may be a part): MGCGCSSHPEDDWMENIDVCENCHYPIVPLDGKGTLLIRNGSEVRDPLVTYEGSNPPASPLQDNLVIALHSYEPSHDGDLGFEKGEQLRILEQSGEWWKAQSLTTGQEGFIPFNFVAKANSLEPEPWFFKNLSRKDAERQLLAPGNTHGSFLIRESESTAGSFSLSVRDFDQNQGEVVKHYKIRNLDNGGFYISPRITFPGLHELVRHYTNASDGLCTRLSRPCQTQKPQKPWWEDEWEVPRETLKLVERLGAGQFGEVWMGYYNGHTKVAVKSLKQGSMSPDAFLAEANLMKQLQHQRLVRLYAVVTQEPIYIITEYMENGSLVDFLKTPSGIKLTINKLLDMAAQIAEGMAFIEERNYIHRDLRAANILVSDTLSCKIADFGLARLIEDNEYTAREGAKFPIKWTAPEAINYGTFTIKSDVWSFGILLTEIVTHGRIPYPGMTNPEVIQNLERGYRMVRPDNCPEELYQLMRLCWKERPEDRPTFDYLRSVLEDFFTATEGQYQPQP

With `O=C1Nc2c(Br)cccc2/C1=C1/Nc2ccccc2/C1=N\O` the IC50 [1] was 4.6 µM, the IC50 [2] was 4.1 µM and the IC50 [3] was 32 µM. For the same molecule, the IC50 [4] was 0.1 µM.
For `COc1ccc2c(c1)/C(=C1/Nc3ccccc3/C1=N\OCCO[C@@H]1O[C@H](CO)[C@@H](O)[C@H](O)[C@H]1O)C(=O)N2`, the IC50 [5] was 0.5 µM, the IC50 [6] was 0.5 µM and the IC50 [7] was 1.2 µM.
Molecule `O=C1Nc2ccccc2/C1=C1/Nc2ccccc2/C1=N\OCC(O)CO` (stereo not given) has an IC50 [8] of 0.95 µM, an IC50 [5] of 0.9 µM and an Activity [9] of 46.8%. The Activity [10] was 49.3%, the IC50 [6] was < 0.1 µM and the IC50 [11] was 0.95 µM.
With `COc1ccc2c(c1)/C(=C1/Nc3ccccc3/C1=N\O)C(=O)N2` the Activity [12] was 60%.
`O=C1Nc2ccccc2/C1=C1/Nc2ccccc2/C1=N\O` gave an IC50 [13] of 3.33 µM, an IC50 [14] of 5 µM and an IC50 [15] of 3 µM. The IC50 [16] was 0.03 µM, the IC50 [17] was 1.48 µM and the Activity [18] was 83.5%. For the same molecule, the IC50 [19] was 4.4 µM, the IC50 [20] was 0.079 µM and the IC50 [21] was 4.7 µM. For the same molecule, the IC50 [22] was 0.25 µM, the Activity [23] was 66.7% and the GI50 [24] was 36.6 µM. For the same molecule, the IC50 [25] was 0.101 µM, the IC50 [26] was 0.38 µM and the IC50 [27] was 0.101 µM. The IC50 [28] was 0.44 µM, the IC50 [29] was 0.36 µM and the IC50 [30] was 0.3 µM. It also gave an IC50 [31] of 0.59 µM, an IC50 [32] of 2.5 µM and an IC50 [33] of 3.3 µM. For the same molecule, the IC50 [34] was 0.31 µM.
`Cl.Cl.O=C1Nc2cc(Br)ccc2/C1=C1/Nc2ccccc2/C1=N\OCCN1CCNCC1` gave an IC50 [35] of 0.0013 µM.
In the case of `CC(=O)O/N=C1/C(=C2/C(=O)Nc3c(Br)cccc32)Nc2ccccc21`, the IC50 [1] is reported as 8 µM, the IC50 [36] is reported as 20 µM and the IC50 [4] is reported as 0.1 µM.
